The text below walks through data of patent US20240150335A1, “FUSED RING DERIVATIVES CONTAINING 1,4-OXAZEPANE” (MEDSHINE DISCOVERY INC., priority 2021, published 2024).

As usually defined, the IC50 is the concentration that gives 50% inhibition.

The target of data set [1] is Recombinant human cathepsin C/DPP1. The experiment in a line: Inhibition effect test of DPP1 enzyme activity. The settings on record: recombinant human cathepsin C/DPP1, Gly-Arg-AMC substrate 12.5 μM, 25° C. 60 minutes; read-out: IC50, inhibitory activity on DPP1 enzyme. It is filed as biochemical. As for the experimental part:
Experimental Example 1: Inhibition Effect Test of DPP1 Enzyme Activity
Recombinant human cathepsin C/DPP1 was purchased from R&D Systems;
Recombinant human cathepsin L (rhCathepsin L) was purchased from R&D Systems;
Gly-Arg-AMC (hydrochloride) was purchased from CAYMAN CHEMICAL COMPANY.
1× activation buffer: 5 mM DTT 0.01% (V/V) Triton X-100 (preparation for current use);
1× assay buffer: 50 mM NaCl 5 mM DTT 0.01% (V/V) Triton X-100 (preparation for current use);
1× activation buffer was used to dilute recombinant human cathepsin C/DPP1 enzyme and recombinant human cathepsin L (rhCathepsin L) enzyme to concentrations of 2 ng/μL and 0.4 ng/μL, respectively; equal volume of two working solutions of enzyme was taken, mixed well and incubated at 25° C. for 60 minutes;
the compounds to be tested were 5-fold diluted with a multi-channel pipette to the 8th concentration, i.e., diluted from 1 mM to 12.8 nM. Then 1× experimental buffer was used to dilute each compound to be tested by gradient into a 4% DMSO working solution. The working solution was added to corresponding wells for 5 μL/well, and duplicate experiment was set. The mixture was centrifuged at 1000 rpm for 1 minute;
5 μL/well of the enzyme mixture after incubation was taken and added to the white microwell plate. At this time, the amount of DPP1 enzyme in each well was 5 ng; 1× experimental buffer in 5 μL/well was added to the blank control well;
Gly-Arg-AMC (hydrochloride) was diluted to 25 μM with 1× assay buffer. The diluted mixture in 10 μL/well was added to a white microwell plate. The substrate concentration was 12.5 μM at this time, and the microplate was centrifuged in a centrifuge at 1000 rpm for 1 minute. […] After centrifugation, the microplate was covered with membrane and incubated at 25° C. for 60 minutes;
after incubation, fluorescence detection was performed using a multi-label analyzer with an excitation wavelength of 360 nm and an emission wavelength of 460 nm.
Using the equation (Sample−Min)/(Max−Min)×100% to convert the raw data into enzyme activity, the IC50 value might be obtained by curve fitting with four parameters (obtained by “log (inhibitor) vs. response—Variable slope” mode in GraphPad Prism).
Max: Contains recombinant human cathepsin C/DPP1, recombinant human cathepsin L (rhCathepsin L), and Gly-Arg-AMC (hydrochloride)
Min: No recombinant human cathepsin C/DPP1 and recombinant human cathepsin L (rhCathepsin L)

Data set [2] can be described thus: Pharmacokinetic evaluation in CD-1 mice. Particulars: oral administration 10.0 mg/kg. It is filed as in vivo. The protocol:
Experimental Example 3: Pharmacokinetic Evaluation of the Compound of the Present Disclosure in […]
Experimental purpose: To test the pharmacokinetics of the compound in CD-1 mice in vivo
Experimental materials: CD-1 mice (male, 20 to 40 g, 4 to 6 weeks old, Beijing Vital River)
The pharmacokinetic characteristics of the compound in rodents after intravenous injection and oral administration were tested according to the standard protocol. In the experiment, the candidate compound was formulated into clear solutions, and a single intravenous injection and oral administration were respectively given to two mice. The vehicle of intravenous injection and oral administration was 1:1:8 DMSO/Solutol/water. The whole blood samples within 24 hours were collected in commercial EDTA2K anticoagulant tubes. The tubes were centrifuged at 6000 g for 3 minutes. The supernatant was separated to obtain plasma samples. 20 times the volume of acetonitrile solution containing internal standard was added to precipitate protein. The mixture was centrifuged. The supernatant was take out. An equal volume of water was added. Then the mixture was centrifuged to take the supernatant as the sample for sampling. Plasma concentration was quantitatively analyzed by LC-MS/MS analysis method, and pharmacokinetic parameters were calculated, such as apparent volume of distribution, clearance rate, half-life, area under the drug-time curve.

Data set [3] in a line: Rat tissue (bone marrow) distribution. It is filed as in vivo. The settings on record: SD rats. As for the experimental part:
Experimental Example 6: Evaluation of Rat Tissue (Bone Marrow) Distribution of the Compound of the Present Disclosure
Experimental purpose: To test the distribution of the compound in the bone marrow and plasma of SD rats
Experimental materials: SD rats (male, 200 to 300 g, 6 to 10 weeks old, Beijing Vital River)
The content of the compound in the bone marrow and plasma of rats after oral administration was tested according to the standard protocol. In the experiment, the candidate compound was formulated into a clear solution. The vehicle was 5:95 DMSO and 10% hydroxypropyl β-cyclodextrin aqueous solution. A dose of 5 mg/kg was given to rats as a single oral administration. The whole blood samples and bone marrow samples were collected at 0.25, 0.5, 1, 2, 4, 6, and 24 hours, respectively. The whole blood samples were collected in commercial EDTA2K anticoagulant tubes. The tubes were centrifuged at 6000 g for 3 minutes. The supernatant was separated to obtain plasma samples. The acetonitrile solution containing internal standard was added to precipitate protein. The mixture was centrifuged. The supernatant was take out. An equal volume of water was added. After mixing well, plasma concentration was quantitatively analyzed by LC-MS/MS analysis method, and the area under the drug-time curve was calculated. The left femur of the rat was taken, and the muscle was removed. One end was cut off, placed in a centrifuge tube with the open end downwards. The tubes were centrifuged at 8000 rpm for 1 minute. The precipitate was bone marrow. The bone marrow was mixed with 50% methanol-water, grinded into a homogenate. The homogenate was added with an acetonitrile solution containing an internal standard to precipitate protein. The mixture was centrifuged to take the supernatant, added with an equal volume of water. After mixing well, the drug concentration in bone marrow was quantitatively analyzed by LC-MS/MS analysis method, and the area under the drug-time curve was calculated.
The calculation formula of bone marrow/plasma distribution coefficient is: Bone marrow/Plasma Ratio=bone marrow AUC0-last/plasma AUC0-last.

Where [4] appears, read: plasma, intravenous injection 2.0 mg/kg.
Setting [5] is: bone marrow, 5 mg/kg single oral administration.

Take `Cn1ncc2ccc(-c3ccc(C[C@@H](C#N)NC(=O)[C@@H]4CNCCCO4)c(F)c3)cc21` [Compound 8]: in data set [1], the IC50 was found to be 3.57 nM. The “Bioavailability F” value in data set [2] (intravenous injection 2.0 mg/kg) was found to be 79.6%. In data set [2] (setting [4]), the “Clearance rate CL” value is 18.7 mL/min/kg and the “Volume of distribution at steady state Vdss” value came out at 8.3 L/kg. Further, the Cmax in data set [2] (plasma, intravenous injection 2.0 mg/kg, read-out: Peak concentration Cmax) was 2310 nM. In addition, in data set [2] (plasma), the “Area under drug-time curve AUC0-∞ PO” value is 17.008 µM·h and the “Half life T1/2 (PO)” value came out at 4.6 h. Besides, in data set [3] (5 mg/kg oral, bone marrow AUC0-last/plasma AUC0-last), the “Bone marrow/plasma distribution coefficient” value came out at 7.0. In data set [3] (setting [5]), the “Bone marrow Area under drug-time curve AUC0-last PO” value came out at 68856 nmol·h/kg and the “Bone marrow Peak concentration Cmax” value was found to be 5014 nmol/kg. Besides, the “Plasma Area under drug-time curve AUC0-last PO” value in data set [3] (plasma, 5 mg/kg single oral administration) turned out to be 9.902 µM·h. Also, the Cmax in data set [3] (plasma, 5 mg/kg single oral administration, read-out: Plasma Peak concentration Cmax) amounted to 1020 nM.
